Assays:
[1] = system: intraocular pressure; experiment: Reducing effect of intraocular pressure after instillation into the rabbit eye (Experiment 1); type: in vivo, Japanese White rabbits; settings: for Δ IOP, Reducing Effects of Intraocular Pressure: 50 µl instilled into left eye, vehicle-corrected, average of three samples; for Change in I.O.P.: area over 0 mmHg minus area under 0 mmHg of the IOP-time graph, 0-6 hr, minus = reduction
Experimental: For example, in a standard laboratory test the following data shown in Table 1 and 2 and in the accompanying Figure 1 were obtained. Average of the value of three samples are shown as each data. In the Figure reduction in intraocular pressure is plotted against time after administration for the compound of the invention and three comparison compounds.
Male Japanese White rabbits weighing about 3.0 kg were lightly held and the intraocular pressure was measured by Applanation Pneumatonograph after corneal anesthesia with instillation of 0.4% oxybuprocaine hydrochloride solution.
A 0.1% solution of a test compound was dissolved in vehicle which contains 2.5% conc. glycerol and 2.0% Polysorbate 80 in sterile purified water. The test solution at volume of 50 µl was instilled into left eye of each rabbit and the right eye remained untreated. As a control, the vehicle was instilled into left eye in a control group. Δ IOP (mmHg), which is an index of intraocular pressure-reducing effect, were calculated using below formula. IOP = (IOPt - IOP₀) - (IOPvt - IOPv0 ) [formula] IOPt : IOP at t hr after instillation of a test solution IOPvt : IOP at t hr after instillation of vehicle IOP₀ : IOP just before instillation of a test solution IOPv0 : IOP just before instillation of vehicle
Taking into consideration the continuous time of occurrence of the reduction effect and the intensity of the effect, the superiority of the compound of the present invention to the compared compound is clear. On the graph 1, the squares i.e. reducing effect of intraocular pressure, were calculated: That is, squares under 0 mmHg put minus and squares over 0 mmHg put plus, and the total squares are calculated and the values are shown in the Table 2.
On the graph of the intraocular pressure in course of time, area of the square (mmHg x hr) in elevation i.e. square over 0 mmHg and area of the square (mmHg x hr) in the reduction i.e. square under 0 mmHg were calculated and from the value of the former was subtracted the one of the latter. The minus-resulted value means reduction of intraocular pressure and the plus-resulted value means elevation of intraocular pressure.

[2] = Detection of compound and metabolite in eye tissue homogenates by liquid chromatography-mass spectrum after eye drop administration (Experiment 2); type: in vivo, Japanese White rabbits; settings: 1 Hr after the last administration; for detection in the homogenates of aqueous humor, cornea or iris/ciliary body: eye drop solution of Example 1 three times every 5 mins in saccus conjunctivae
Experimental: Japanese White rabbits weighing 3.0 kg were used. Eye drop solution of Example 1 was administered three times every 5 mins in saccus conjunctivae. 1 Hr after the last administration, aqueous humor, cornea and iris/ciliary body were collected and homogenized respectively. The homogenates were measured by liquid chromatography-Mass spectrum.

[3] = 0 hr after administration (baseline), 0.1% solution
[4] = 1 hr after administration, 0.1% solution
[5] = 2 hr after administration, 0.1% solution
[6] = 4 hr after administration, 0.1% solution
[7] = 6 hr after administration, 0.1% solution

Row | Structure (SMILES) | Δ IOP, Reducing Effects of Intraocular Pressure [1, 3] [mm Hg] | continued elevation of the intraocular pressure ([1]; 0.1% solution) | initial elevation of the intraocular pressure ([1]; 0.1% solution) | time after administration at which the reducing effect appeared ([1]; 0.1% solution) [h] | Δ IOP, Reducing Effects of Intraocular Pressure [1, 4] [mm Hg] | Δ IOP, Reducing Effects of Intraocular Pressure [1, 5] [mm Hg] | Δ IOP, Reducing Effects of Intraocular Pressure [1, 6] [mm Hg] | Δ IOP, Reducing Effects of Intraocular Pressure [1, 7] [mm Hg] | Change in I.O.P. ([1]; 0.1% solution) [mmHg x hr] | hydrolysis on cornea ([2]; eye drop solution of Example 1) | detection in the homogenates of aqueous humor, cornea or iris/ciliary body [2] | maximum reduction of IOP ([1]; 0.1% solution) [mmHg] | bulbar and palpebral conjunctival hyperemia ([1]; after instillation of 0.1% solution) | activity (reduction of intraocular pressure) reached ([1]; at 2 hrs after administration, same level maintained till 6 hrs) [mmHg]
1 | CCCCC[C@H](O)/C=C/[C@@H]1[C@@H](C/C=C\CCCC(=O)OC(C)C)[C@@H](O)C[C@@H]1O [Compared compound 1, 11-epi-PGF2α isopropyl ester] | 0 | continuous elevation till 6 hrs | showed initial elevation | > 6 | 3.5 | 1.5 | 1.5 | 0.2 | 8.95 | – | – | – | – | –
2 | CCCCC[C@H](O)/C=C/[C@@H]1[C@@H](C/C=C\CCCC(=O)OC(C)C)[C@@H](O)C[C@H]1O [Compared compound 2, PGF2α isopropyl ester] | 0 | – | extremely strong initial elevation | ~4 | 13.7 | 3.7 | -1 | -5.8 | 11.36 | – | – | – | – | –
3 | CCCCC[C@H](O)CC[C@@H]1[C@@H](C/C=C\CCCC(=O)OC)[C@@H](O)C[C@H]1O [Compared compound 3, 13,14-dihydro-PGF2α methyl ester] | 0 | – | showed initial elevation | ~4 | 3.3 | -1.3 | -0.7 | -4.3 | -4.35 | – | – | – | – | –
4 | CCCCC[C@H](O)CC[C@@H]1[C@@H](C/C=C\CCCC(=O)OC(C)C)[C@H](O)C[C@H]1O [Example 1, 13,14-dihydro-PGF2β isopropyl ester] | 0 | – | did not show initial elevation | 1 | -1.8 | -5.5 | -5.5 | -5.3 | -26.35 | hydrolysed into the compound of Example 2 | not detected | 5.5 | not observed | 5.5
5 | CCCCC[C@H](O)CC[C@@H]1[C@@H](C/C=C\CCCC(=O)O)[C@H](O)C[C@H]1O [Example 2, 13,14-dihydro-prostaglandin F2β] | – | – | – | – | – | – | – | – | – | – | detected | – | – | –
